Source: PubChem BioAssay (NCI)
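1) Cells in 96-well plates. 2) Compound, 48 h, 5 concentrations. 3) Linear interpolation between surrounding doses. 4) Unreached endpoint = highest concentration. TGI: concentration producing complete growth inhibition.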

Columns and labels:
Experiment in all cases: NCI anticancer screen, dose series, 48 h
786-0 renal = test system: 786-0 renal
A549 NSCLC = test system: A549 NSCLC
ACHN renal = test system: ACHN renal
CAKI-1 renal = test system: CAKI-1 renal
CCRF-CEM leukemia = test system: CCRF-CEM leukemia
COLO 205 colon = test system: COLO 205 colon
DLD-1 colon = test system: DLD-1 colon
DMS 114 small cell lung = test system: DMS 114 small cell lung
DMS 273 small cell lung = test system: DMS 273 small cell lung
EKVX NSCLC = test system: EKVX NSCLC
HCC-2998 colon = test system: HCC-2998 colon
HCT-116 colon = test system: HCT-116 colon
HCT-15 colon = test system: HCT-15 colon
HL-60(TB) leukemia = test system: HL-60(TB) leukemia
HOP-62 NSCLC = test system: HOP-62 NSCLC
HT29 colon = test system: HT29 colon
IGROV1 ovarian = test system: IGROV1 ovarian
K-562 leukemia = test system: K-562 leukemia
KM12 colon = test system: KM12 colon
KM20L2 colon = test system: KM20L2 colon
LOX IMVI melanoma = test system: LOX IMVI melanoma
LXFL 529 NSCLC = test system: LXFL 529 NSCLC
M14 melanoma = test system: M14 melanoma
M19-MEL melanoma = test system: M19-MEL melanoma
MALME-3M melanoma = test system: MALME-3M melanoma
MOLT-4 leukemia = test system: MOLT-4 leukemia
NCI-H226 lung = test system: NCI-H226 lung
NCI-H23 lung = test system: NCI-H23 lung
NCI-H460 lung = test system: NCI-H460 lung
NCI-H522 lung = test system: NCI-H522 lung
OVCAR-3 ovarian = test system: OVCAR-3 ovarian
OVCAR-4 ovarian = test system: OVCAR-4 ovarian
OVCAR-5 ovarian = test system: OVCAR-5 ovarian
OVCAR-8 ovarian = test system: OVCAR-8 ovarian
RPMI-8226 leukemia = test system: RPMI-8226 leukemia
RXF 393 renal = test system: RXF 393 renal
RXF-631 renal = test system: RXF-631 renal
SF-268 CNS = test system: SF-268 CNS
SF-295 CNS = test system: SF-295 CNS
SF-539 CNS = test system: SF-539 CNS
SK-MEL-2 melanoma = test system: SK-MEL-2 melanoma
SK-MEL-28 melanoma = test system: SK-MEL-28 melanoma
SK-OV-3 ovarian = test system: SK-OV-3 ovarian
SN12C renal = test system: SN12C renal
SNB-19 CNS = test system: SNB-19 CNS
SNB-75 CNS = test system: SNB-75 CNS
SR leukemia = test system: SR leukemia
SW-620 colon = test system: SW-620 colon
TK-10 renal = test system: TK-10 renal
U251 CNS = test system: U251 CNS
UACC-257 melanoma = test system: UACC-257 melanoma
UACC-62 melanoma = test system: UACC-62 melanoma
UO-31 renal = test system: UO-31 renal
XF 498 CNS = test system: XF 498 CNS
A498 renal = test system: A498 renal
HOP-92 NSCLC = test system: HOP-92 NSCLC
SK-MEL-5 melanoma = test system: SK-MEL-5 melanoma

Measured: TGI

CC(=O)COC(=O)CC(C)=O
not listed: A498 renal | HOP-92 NSCLC | SK-MEL-5 melanoma
> 100 µM: all other assays above

CC(=O)N(C(C)=O)c1c(N)n(C)c(=O)[nH]c1=O
not listed: HOP-62 NSCLC | NCI-H522 lung | SK-OV-3 ovarian | SNB-75 CNS | SR leukemia | TK-10 renal | U251 CNS
> 100 µM: all other assays above

NC(N)=N/N=C(/CCN1CCCC1)CC(c1ccccc1)c1c(O)c2ccccc2oc1=O (configuration not stated)
not listed: CCRF-CEM leukemia | DMS 273 small cell lung | HCT-15 colon | HL-60(TB) leukemia | KM12 colon | MOLT-4 leukemia | NCI-H460 lung | OVCAR-5 ovarian | OVCAR-8 ovarian | SR leukemia | U251 CNS | UO-31 renal | A498 renal | SK-MEL-5 melanoma
> 100 µM: all other assays above
